Here are results for 13 compounds from patent publication US6348445B1, “Biologically active peptides with reduced toxicity in animals and a method for preparing same” (priority 1992, dated 2002).

Holding throughout (assay type): cell-based
One test relates to C. albicans. An excerpt:
(§1) Table I, which follows, indicates the Minimal Inhibitory Concentration (MIC) in […] of various peptides against S.aureus strain ATCC 25923(S), P. aeruginosa strain ATCC 27853(P), E. coli ATCC strain 25922(E), and C. 4albicans (CA). […] The peptides are unsubstituted at the N-terminal; substituted with an acetyl group at the N-terminal, as indicated by Ac-; substituted with an octanoyl group at the N-terminal, as indicated by Oct-; substituted with spinogosine, as indicated by Sph-; substituted with a succinyl group, as indicated by Suc-; substituted with a hexanoyl group, as indicated by Hex-; substituted with a heptanoyl group, as indicated by Hep-; substituted with a valeryl group, as indicated by Val-; substituted with a myristryl group, as indicated by Myr-; or substituted with an ibuprofyl group, as indicated by Ibu-;
(§2) The procedure for the anti-bacterial assay is based upon the guidelines of the National Committee for Clinical Laboratory Standards, Document M7-T2, Volume 8, No. 8, 1988, which document is entirely incorporated herein by reference.
(§3) Stock solutions of peptides, with and without the appropriate substitutions, were prepared at a concentration of 512 μg/ml in sterile deionized distilled water and stored at −70° C.
(§4) The stock peptide solution was diluted in serial dilutions (1:2) down the wells of a microtiter plate so that the final concentrations of peptides in the wells were 0.25, 0.50, 1, 2, 4, 8, 16, 32, 64, 128 and 256 μg/ml. 1-5×10^5 CFUs/ml of either S. aureus ATCC 25923, E. coli ATCC 25922, P. aeruginosa ATCC 27853, or C. albicans, were added to the wells in full strength Mueller Hinton broth (BBL 11443) from a mid-log culture. The inoculum was standardized spectrophotometrically at 600 nm and was verified by colony counts. The plates were incubated for 16-20 hours at 37° C., and the minimal inhibitory concentration (MIC) for each peptide was determined. Minimal inhibitory concentration is defined as the lowest concentration of peptide which produces a clear well in the microtiter plate. The minimal inhibitory concentration of each of the peptides with and/or without the appropriate substitutions is given in Table I below.

For test [1], the system named is P. aeruginosa strain ATCC 27853. As to conditions: ATCC 27853.
Text: as §1, §2, §3, §4
(§5) The in vitro anti-microbial activities of the methane sulfonate derivatives were determined according to the methods described in Examples 1 and 2. The activities against ATCC strains of S. aureus, E. coli, P. aeruginosa, and C. albicans, and the hemolysis of red blood cells were compared to the parent compound (Table IV). The activities for Compound 843 (Oct-SEQ ID NO:143) methane sulfonate against clinical strains of P. aeruginosa isolated from cystic fibrosis patients were compared to the parent compound (Table V). The activity for Compound 469 (Oct-SEQ ID NO:27) methane sulfonate against P. gingivalis was compared to the parent compound (Table VI).

Test [2] deals with E. coli ATCC strain 25922. The experiment in a line: Minimal Inhibitory Concentration, microtiter broth dilution. As to conditions: ATCC strain 25922.
Text: as §1, §2, §3, §4, §5

Each structure is given as a SMILES string. Where a SMILES comes first, the peptide text is derived from it. [ ]: non-standard residue; d: D form. The star is where a group is joined. Octanoyl = CCCCCCCC(=O)*; Orn = NCCC[C@H](N)C(=O)O

Take `CCCCCCCC(=O)N[C@@H](CCCCN)C(=O)N[C@@H](CC(C)C)C(=O)N[C@@H](CCCCN)C(=O)N[C@@H](CCCCN)C(=O)N[C@@H](CCCCN)C(=O)N[C@@H](Cc1ccccc1)C(=O)N[C@@H](CC(C)C)C(=O)N[C@@H](CCCCN)C(=O)N[C@@H](CCCCN)C(=O)N[C@@H](CC(C)C)C(N)=O` [Oct-(SEQ ID NO: 129)-NH2] (Octanoyl-KLKKKFLKKL-NH2): the “Minimal Inhibitory Concentration CA” value in the test with C. albicans turned out to be 128 µg/mL. Further, the “Minimal Inhibitory Concentration P” value in test [1] came out at 16 µg/mL. Also, in test [2], the “Minimal Inhibitory Concentration E” value was found to be 32 µg/mL.

Regarding `CCCCCCCC(=O)N[C@@H](CC(C)C)C(=O)N[C@@H](CCCCN)C(=O)N[C@@H](CCCCN)C(=O)N[C@@H](CC(C)C)C(=O)N[C@@H](CC(C)C)C(=O)N[C@@H](CCC(=O)O)C(=O)N[C@@H](CCCCN)C(=O)N[C@@H](CC(C)C)C(=O)N[C@@H](CCCCN)C(=O)N[C@@H](CCCCN)C(=O)N[C@@H](CC(C)C)C(N)=O` [Oct-(SEQ ID NO: 130)-NH2] (Octanoyl-LKKLLEKLKKL-NH2), in the test with C. albicans, the “Minimal Inhibitory Concentration CA” value came out at 8 µg/mL. Also, in test [1], the “Minimal Inhibitory Concentration P” value is 4 µg/mL. Moreover, in test [2], the “Minimal Inhibitory Concentration E” value was found to be 4 µg/mL.

Take `CCCCCCCC(=O)N[C@@H](CC(C)C)C(=O)N[C@@H](CCCCN)C(=O)N[C@@H](CCCCN)C(=O)N[C@@H](CC(C)C)C(=O)N[C@@H](CC(C)C)C(=O)N[C@@H](CCCCN)C(=O)N[C@@H](CCC(=O)O)C(=O)N[C@@H](CC(C)C)C(=O)N[C@@H](CCCCN)C(=O)N[C@@H](CCCCN)C(=O)N[C@@H](CC(C)C)C(N)=O` [Oct-(SEQ ID NO: 131)-NH2] (Octanoyl-LKKLLKELKKL-NH2): the “Minimal Inhibitory Concentration CA” value in the test with C. albicans came out at 64 µg/mL. Moreover, the “Minimal Inhibitory Concentration P” value in test [1] was 8 µg/mL. The “Minimal Inhibitory Concentration E” value in test [2] was found to be 4 µg/mL.

As for `CCCCCCCC(=O)N[C@@H](CC(C)C)C(=O)N[C@@H](CCCCN)C(=O)N[C@@H](CCCCN)C(=O)N[C@@H](CC(C)C)C(=O)N[C@@H](CC(C)C)C(=O)N[C@@H](CCCCN)C(=O)N[C@@H](CCCCN)C(=O)N[C@@H](CC(C)C)C(=O)N[C@@H](CCCCN)C(=O)N[C@@H](CCCCN)C(=O)N[C@@H](CC(C)C)C(=O)N[C@@H](CS)C(N)=O` [Oct-(SEQ ID NO: 133)-NH2] (Octanoyl-LKKLLKKLKKLC-NH2), the “Minimal Inhibitory Concentration CA” value in the test with C. albicans was 128 µg/mL. The “Minimal Inhibitory Concentration P” value in test [1] amounted to 32 µg/mL. In addition, the “Minimal Inhibitory Concentration E” value in test [2] was determined as 32 µg/mL.

Consider `CCCCCCCC(=O)N[C@@H](CCCCN)C(=O)N[C@@H](CCCCN)C(=O)N[C@@H](Cc1ccccc1)C(=O)NCC(=O)N[C@@H](CCCCN)C(=O)N[C@@H](CCCCN)C(=O)N[C@@H](Cc1ccccc1)C(=O)N[C@H](C(=O)N[C@@H](CCCCN)C(=O)N[C@H](C(=O)N[C@@H](CC(C)C)C(=O)N[C@@H](CCCCN)C(=O)N[C@@H](CCCCN)C(N)=O)[C@@H](C)CC)C(C)C` [Oct-(SEQ ID NO: 135)-NH2] (Octanoyl-KKFGKKFVKILKK-NH2), for which, in the test with C. albicans, the “Minimal Inhibitory Concentration CA” value was 64 µg/mL. Also, in test [1], the “Minimal Inhibitory Concentration P” value amounted to 8 µg/mL. In test [2], the “Minimal Inhibitory Concentration E” value worked out at 64 µg/mL.

For the compound `CCCCCCCC(=O)N[C@@H](CC(C)C)C(=O)N[C@@H](CCCCN)C(=O)N[C@@H](CCCCN)C(=O)N[C@@H](CC(C)C)C(=O)N[C@@H](CC(C)C)C(=O)N[C@@H](CCCCN)C(=O)N[C@@H](CCCCN)C(N)=O` [Oct-(SEQ ID NO: 137)-NH2] (Octanoyl-LKKLLKK-NH2), the “Minimal Inhibitory Concentration CA” value with C. albicans was found to be 256 µg/mL. Also, the “Minimal Inhibitory Concentration P” value in test [1] is 256 µg/mL. Also, the “Minimal Inhibitory Concentration E” value in test [2] is above 256 µg/mL.

Take `CCCCCCCC(=O)N[C@@H](CC(C)C)C(=O)N[C@@H](CCCCN)C(=O)N[C@@H](CCCCN)C(=O)N[C@@H](CC(C)C)C(=O)N[C@@H](CC(C)C)C(=O)N[C@@H](CCCCN)C(=O)N[C@@H](CC(C)C)C(=O)N[C@@H](CC(C)C)C(=O)N[C@@H](CCCCN)C(N)=O` [Oct-(SEQ ID NO: 138)-NH2] (Octanoyl-LKKLLKLLK-NH2): the “Minimal Inhibitory Concentration CA” value in the test with C. albicans amounted to 64 µg/mL. Besides, the “Minimal Inhibitory Concentration P” value in test [1] was determined as 8 µg/mL. For the same compound, the “Minimal Inhibitory Concentration E” value in test [2] was determined as 8 µg/mL.

For `CCCCCCCC(=O)N[C@@H](CCCCN)C(=O)N[C@@H](CCCCN)C(=O)N[C@@H](CC(C)C)C(=O)N[C@@H](CC(C)C)C(=O)N[C@@H](CCCCN)C(=O)N[C@@H](CCCCN)C(=O)N[C@@H](CC(C)C)C(=O)N[C@@H](CCCCN)C(=O)N[C@@H](CCCCN)C(=O)N[C@@H](CC(C)C)C(=O)N[C@@H](CC(C)C)C(=O)N[C@@H](CCCCN)C(=O)N[C@@H](CCCCN)C(=O)N[C@@H](CC(C)C)C(N)=O` [Oct-(SEQ ID NO: 139)-NH2] (Octanoyl-KKLLKKLKKLLKKL-NH2), the “Minimal Inhibitory Concentration CA” value in the test with C. albicans was 128 µg/mL. In addition, the “Minimal Inhibitory Concentration P” value in test [1] amounted to 32 µg/mL. Also, the “Minimal Inhibitory Concentration E” value in test [2] came to 16 µg/mL.

As for `CCCCCCCC(=O)N[C@@H](CC(C)C)C(=O)N[C@@H](CCCN)C(=O)N[C@@H](CCCCN)C(=O)N[C@@H](CC(C)C)C(=O)N[C@@H](CC(C)C)C(=O)N[C@@H](CCCCN)C(=O)N[C@@H](CCCCN)C(=O)N[C@@H](CC(C)C)C(=O)N[C@@H](CCCCN)C(=O)N[C@@H](CCCCN)C(=O)N[C@@H](CC(C)C)C(N)=O` [Oct-(SEQ ID NO: 141)-NH2] (Octanoyl-L[Orn]KLLKKLKKL-NH2), the “Minimal Inhibitory Concentration CA” value in the test on C. albicans amounted to 32 µg/mL. Further, the “Minimal Inhibitory Concentration P” value in test [1] was 4 µg/mL. In test [2], the “Minimal Inhibitory Concentration E” value came out at 8 µg/mL.

For the compound `CCCCCCCC(=O)N[C@@H](CC(C)C)C(=O)N[C@@H](CCCN)C(=O)N[C@@H](CCCN)C(=O)N[C@@H](CC(C)C)C(=O)N[C@@H](CC(C)C)C(=O)N[C@@H](CCCN)C(=O)N[C@@H](CCCN)C(=O)N[C@@H](CC(C)C)C(=O)N[C@@H](CCCN)C(=O)N[C@@H](CCCN)C(=O)N[C@@H](CC(C)C)C(N)=O` [Oct-(SEQ ID NO: 142)-NH2] (Octanoyl-L[Orn][Orn]LL[Orn][Orn]L[Orn][Orn]L-NH2), the “Minimal Inhibitory Concentration CA” value in the test on C. albicans worked out at 32 µg/mL. Moreover, in test [1], the “Minimal Inhibitory Concentration P” value turned out to be 2 µg/mL. In addition, the “Minimal Inhibitory Concentration E” value in test [2] came out at 8 µg/mL.

In the case of `CCCCCCCC(=O)N[C@@H](CCCN)C(=O)N[C@@H](CCCN)C(=O)N[C@@H](CC(C)C)C(=O)N[C@@H](CC(C)C)C(=O)N[C@@H](CCCN)C(=O)N[C@@H](CCC(N)=O)C(=O)N[C@@H](CC(C)C)C(=O)N[C@@H](CCCN)C(=O)N[C@@H](CCCN)C(=O)N[C@@H](CC(C)C)C(N)=O` [Oct-(SEQ ID NO: 144)-NH2] (Octanoyl-[Orn][Orn]LL[Orn]QL[Orn][Orn]L-NH2), the “Minimal Inhibitory Concentration CA” value in the test with C. albicans was 32 µg/mL. Moreover, the “Minimal Inhibitory Concentration P” value in test [1] came out at 4 µg/mL. In addition, the “Minimal Inhibitory Concentration E” value in test [2] stood at 16 µg/mL.

`CCCCCCCC(=O)N[C@@H](CCCNC(=N)N)C(=O)N[C@@H](CC(C)C)C(=O)N[C@@H](CC(C)C)C(=O)N[C@@H](CCCNC(=N)N)C(=O)N[C@@H](CCCNC(=N)N)C(=O)N[C@@H](CC(C)C)C(=O)N[C@@H](CCCNC(=N)N)C(=O)N[C@@H](CCCNC(=N)N)C(=O)N[C@@H](CC(C)C)C(N)=O` [Oct-(SEQ ID NO: 145)-NH2] (Octanoyl-RLLRRLRRL-NH2): the “Minimal Inhibitory Concentration CA” value in the test with C. albicans turned out to be 64 µg/mL. Moreover, the “Minimal Inhibitory Concentration P” value in test [1] turned out to be 8 µg/mL. In addition, the “Minimal Inhibitory Concentration E” value in test [2] was determined as 16 µg/mL.

As for `CCCCCCCC(=O)N[C@H](C(=O)N[C@@H](CCCCN)C(=O)N[C@@H](CCCCN)C(=O)N[C@@H](CC(C)C)C(=O)N[C@@H](CC(C)C)C(=O)N[C@@H](CCCCN)C(=O)N[C@@H](CCCCN)C(=O)N[C@@H](CC(C)C)C(=O)N[C@@H](CCCCN)C(=O)N[C@@H](CCCCN)C(=O)N[C@@H](CC(C)C)C(N)=O)C(C)C` [Oct-(SEQ ID NO: 146)-NH2] (Octanoyl-VKKLLKKLKKL-NH2), in the test on C. albicans, the “Minimal Inhibitory Concentration CA” value was determined as 32 µg/mL. Moreover, the “Minimal Inhibitory Concentration P” value in test [1] was 4 µg/mL. For the same compound, the “Minimal Inhibitory Concentration E” value in test [2] came out at 16 µg/mL.
